Molecular target: T1, Cbl-b (Homo sapiens, UniProt Q13191)
T1 construct: biotin (biotinylated protein)
Test: Cbl-b probe displacement HTRF binding assay
Details: 0.4 nM Cbl-b, 150 nM BODIPY probe
Procedure: The affinity with which compounds of the present disclosure bind to Cbl-b was assessed using probe displacement homologous time resolved fluorescence (HTRF) assays. The assays used a BODIPY™ conjugated probe (Example 54 from WO 2020264398) and biotinylated Cbl-b. The assays were performed in assay buffer consisting of 20 mM Hepes, 150 mM NaCl, 0.01% Triton X-100, 0.5 mM TCEP, 0.01% BSA. On the day of the assay, a 20 point, 1:2 master serial dilution of each compound was prepared in DMSO to span a final concentration range of […] to 0 nM. Two hundred nanoliters of diluted compound was added to each well of a 384-well plate. Fifteen microliters of biotinylated- Cbl-b resuspended in assay buffer were added to each well and the plate incubated for 60 minutes at room temperature prior to addition of 5 μL of BODIPY™ probe in assay buffer. Final assay conditions included 0.4 nM of Cbl-b and 150 nM of BODIPY™ probe. After a further 15 minutes of incubation at room temperature, 5 μl of Streptavidin-Terbium cryptate reagent at 5-fold final concentration was added to each well of the 384-well plate. Binding of a probe to Cbl-b results in an increase of HTRF signal. HTRF signal was measured by Envision plate reader, while competition of a compound of the present disclosure with probe results in a decrease of signal. Percentage maximum activity in each test well was calculated based on DMSO (maximum activity, 0% displacement) and no protein control wells (baseline activity, 100% displacement). Binding affinity was determined from a dose response curve fitted using a standard four parameter fit equation. See Table 7 for data for compounds (Cbl-b Binding (IC50)).

T1 sequence (Q13191 whole entry, species assumed): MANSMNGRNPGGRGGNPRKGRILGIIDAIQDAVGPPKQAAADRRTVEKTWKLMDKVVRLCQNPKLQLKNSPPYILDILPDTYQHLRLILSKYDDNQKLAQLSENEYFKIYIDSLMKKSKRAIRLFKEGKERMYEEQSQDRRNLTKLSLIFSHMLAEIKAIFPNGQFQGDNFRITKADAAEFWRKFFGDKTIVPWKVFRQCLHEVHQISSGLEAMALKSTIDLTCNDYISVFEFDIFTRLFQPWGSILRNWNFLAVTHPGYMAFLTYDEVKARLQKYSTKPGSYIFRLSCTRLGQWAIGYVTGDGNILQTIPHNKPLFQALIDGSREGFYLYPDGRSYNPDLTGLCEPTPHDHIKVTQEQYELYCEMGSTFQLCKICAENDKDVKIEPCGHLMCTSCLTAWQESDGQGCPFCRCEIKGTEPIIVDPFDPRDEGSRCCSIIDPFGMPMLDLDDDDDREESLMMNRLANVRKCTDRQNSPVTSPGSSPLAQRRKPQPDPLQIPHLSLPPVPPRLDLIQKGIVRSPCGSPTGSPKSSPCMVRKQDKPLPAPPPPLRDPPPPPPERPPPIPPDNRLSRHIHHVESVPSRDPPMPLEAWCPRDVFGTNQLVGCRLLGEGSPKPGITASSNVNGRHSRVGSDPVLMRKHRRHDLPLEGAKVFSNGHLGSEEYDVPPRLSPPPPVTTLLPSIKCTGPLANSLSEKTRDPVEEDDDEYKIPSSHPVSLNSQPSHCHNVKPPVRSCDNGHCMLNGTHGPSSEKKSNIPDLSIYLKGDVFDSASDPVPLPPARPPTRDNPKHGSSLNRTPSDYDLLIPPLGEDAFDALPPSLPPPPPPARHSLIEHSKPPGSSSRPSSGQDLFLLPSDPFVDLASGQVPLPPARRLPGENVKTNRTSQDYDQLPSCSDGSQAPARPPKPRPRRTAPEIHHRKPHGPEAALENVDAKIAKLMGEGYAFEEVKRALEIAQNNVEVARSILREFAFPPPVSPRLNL

Row | IC50 [nM] | Structure (SMILES)
1 | < 100 | CCNc1cc(-c2ccc(Cl)cc2C(=O)N2CC(F)(F)C2)cc(NC(=O)c2cc(CNC[C@H](C)OC)cn(C)c2=O)n1 [Example 172]
2 | < 100 | COc1ccc(-c2cc(NC(=O)c3cc(CN[C@@H](CO)C4CCC4)cn(C4CC4)c3=O)nc(OC(C)C)c2)c(C(=O)N2CC(F)C2)c1 [Example 318]
3 | < 100 | CCOc1cc(-c2ccc(OC(F)F)cc2C(=O)N2CC(F)C2)cc(NC(=O)c2cc(CNCC(C)C)cn(C)c2=O)n1 [Example 286]
4 | < 100 | C[C@H](N[C@H](C)c1cc(C(=O)Nc2cc(-c3ccc(C#N)cc3C(=O)N3CC(F)(F)C3)cc(C3CC3)n2)c(=O)n(C2CC2)c1)C1CC1 [Example 323]
5 | < 100 | CC(C)Oc1cc(-c2ccc(C#N)cc2C(=O)N2CC(F)(F)C2)cc(NC(=O)c2cc(CNC[C@@H]3CCCCO3)cn(C)c2=O)n1 [Example 407]
6 | < 100 | N#Cc1ccc(-c2cc(NC(=O)c3cc(CNC4CCCC4)cn(C4CC4)c3=O)nc(C3CC3)c2)c(C(=O)N2CC(F)(F)C2)c1 [Example 397]
7 | < 100 | CO[C@@H](C)CNCc1cc(C(=O)Nc2cc(-c3cc(Cl)c(Cl)cc3C(=O)N3CC(F)(F)C3)cc(C3CC3)n2)c(=O)n(C2CC2)c1 [Example 411]
8 | < 100 | CO[C@H]1CC[C@@H]1NCc1cc(C(=O)Nc2cc(-c3ccc(C#N)cc3C(=O)N3CC(F)(F)C3)cc(C3CC3)n2)c(=O)n(C2CC2)c1 [Example 402]
9 | < 100 | CC(C)CNCc1cc(C(=O)Nc2cc(-c3ccc(Cl)cc3C(=O)N3CC(F)C3)cc(OC(C)C)n2)c(=O)n(C2CC2)c1 [Example 251]
10 | < 100 | COc1ccc(-c2cc(NC(=O)c3cc(CN[C@@H](C)C4CCC4)cn(C)c3=O)nc(OC(C)C)c2)c(C(=O)N2CC(F)(F)C2)c1 [Example 292]
11 | < 100 | COc1ccc(-c2cc(NC(=O)c3cc(CNC[C@H](C)OC)cn(C4CC4)c3=O)nc(OC(C)C)c2)c(C(=O)N2CC(F)(F)C2)c1 [Example 305]
12 | < 100 | CC(C)CNCc1cc(C(=O)Nc2cc(-c3ccc(C#N)cc3C(=O)N3CC(F)(F)C3)cc(OC(C)C)n2)c(=O)n(C2CC2)c1 [Example 97, N-(4-{4-cyano-2-[(3,3-difluoro-1-azetidinyl)carbonyl]phenyl}-6-isopropoxy-2-pyridyl)-1-cyclopropyl-5-[(isobutylamino)methyl]-2-oxo-1,2-dihydronicotinamide]
13 | < 100 | C[C@H](NCc1cc(C(=O)Nc2cc(-c3ccc(OC(F)F)cc3C(=O)N3CC(F)C3)cc(OC3CC3)n2)c(=O)n(C)c1)C1CCC1 [Example 262]
14 | < 100 | CC(C)CNCc1cc(C(=O)Nc2cc(-c3ccc(Cl)cc3C(=O)N3CC(F)(F)C3)cc(C3CC3)n2)c(=O)n(C2CC2)c1 [Example 134, N-(4-{4-chloro-2-[(3,3-difluoro-1-azetidinyl)carbonyl]phenyl}-6-cyclopropyl-2-pyridyl)-1-cyclopropyl-5-[(isobutylamino)methyl]-2-oxo-1,2-dihydronicotinamide]
15 | < 100 | COCCNCc1cc(C(=O)Nc2cc(-c3c(F)cc(Cl)cc3C(=O)N3CC(F)(F)C3)cc(C3CC3)n2)c(=O)n(C2CC2)c1 [Example 147, N-(4-{4-chloro-2-[(3,3-difluoro-1-azetidinyl)carbonyl]-6-fluorophenyl}-6-cyclopropyl-2-pyridyl)-1-cyclopropyl-5-[(2-methoxyethylamino)methyl]-2-oxo-1,2-dihydronicotinamide]
16 | < 100 | COc1ccc(-c2cc(NC(=O)c3cc(CNC[C@@H]4CCCO4)cn(C4CC4)c3=O)nc(OC(C)C)c2)c(C(=O)N2CC(F)C2)c1 [Example 283]
17 | < 100 | COCCNCc1cc(C(=O)Nc2cc(-c3ccc(OC(F)F)cc3C(=O)N3CC(F)(F)C3)cc(C3CC3)n2)c(=O)n(C2CC2)c1 [Example 337]
18 | < 100 | COc1cc(-c2ccc(OC(F)F)cc2C(=O)N2CC(F)(F)C2)cc(NC(=O)c2cc(CNC[C@H](C)OC)cn(C3CC3)c2=O)n1 [Example 334]

Row | IC50 [nM] | Structure (SMILES)
19 | < 100 | CC1(CNCc2cc(C(=O)Nc3cc(-c4ccc(C#N)cc4C(=O)N4CC(F)(F)C4)cc(C4CC4)n3)c(=O)n(C3CC3)c2)CC1 [Example 385]
20 | < 100 | COCCNCc1cc(C(=O)Nc2cc(-c3ccc(F)cc3C(=O)N3CC(F)(F)C3)cc(C3CC3)n2)c(=O)n(C2CC2)c1 [Example 403]
21 | < 100 | C=CCn1cc(CN2CCC[C@H](C)C2)cc(C(=O)Nc2cccc(C3(c4nncn4C)CC(C)C3)c2)c1=O (mixture of isomers) [Example 77, N-[3-[3-methyl-1-(4-methyl-1,2,4-triazol-3-yl)cyclobutyl]phenyl]-5-[[(3S)-3-methylpiperidin-1-yl]methyl]-2-oxo-1-prop-2-enylpyridine-3-carboxamide]
22 | < 100 | CC(C)Oc1cc(-c2ccc(C#N)cc2C(=O)N2CC(F)(F)C2)cc(NC(=O)c2cc(CNC[C@@H]3CCCO3)cn(C)c2=O)n1 [Example 389]
23 | < 100 | CC(C)Oc1cc(-c2ccc(OC(F)F)cc2C(=O)N2CC(F)C2)cc(NC(=O)c2cc(CNC[C@@H]3CCCO3)cn(C)c2=O)n1 [Example 297]
24 | < 100 | CO[C@@H](C)CNCc1cc(C(=O)Nc2cc(-c3c(F)cc(F)cc3C(=O)N3CC(F)(F)C3)cc(OC(C)C)n2)c(=O)n(C2CC2)c1 [Example 368]
25 | < 100 | CO[C@@H](C)[C@H](C)NCc1cc(C(=O)Nc2cc(-c3ccc(Cl)cc3C(=O)N3CC(F)C3)cc(OC(C)C)n2)c(=O)n(C2CC2)c1 [Example 259]
26 | < 100 | CCOc1cc(-c2ccc(OC(F)F)cc2C(=O)N2CC(F)C2)cc(NC(=O)c2cc(CNC[C@H](C)OC)cn(C)c2=O)n1 [Example 275]
27 | < 100 | CO[C@@H](C)CNCc1cc(C(=O)Nc2cc(-c3ccc(OC(F)F)cc3C(=O)N3CC(F)(F)C3)cc(C3CC3)n2)c(=O)n(C2CC2)c1 [Example 321]
28 | < 100 | CO[C@@H](C)CNCc1cc(C(=O)Nc2cc(-c3ccc(C#N)cc3C(=O)N3CC(F)C3)cc(OC(C)C)n2)c(=O)n(C)c1 [Example 265]
29 | < 100 | CCOc1cc(-c2c(F)cc(Cl)cc2C(=O)N2CC(F)(F)C2)cc(NC(=O)c2cc(CNCC(C)C)cn(C3CC3)c2=O)n1 [Example 213]
30 | < 100 | CC(C)Oc1cc(-c2ccc(OC(F)F)cc2C(=O)N2CC(F)(F)C2)cc(NC(=O)c2cc(CNC[C@@H]3CCCO3)cn(C3CC3)c2=O)n1 [Example 209]
31 | < 100 | CO[C@@H](C)[C@H](C)NCc1cc(C(=O)Nc2cc(-c3ccc(C#N)cc3C(=O)N3CC(F)(F)C3)cc(OC(C)C)n2)c(=O)n(C2CC2)c1 [Example 142]
32 | < 100 | COc1ccc(-c2cc(NC(=O)c3cc(CNCC(C)C)cn(C4CC4)c3=O)nc(C3CC3)c2)c(C(=O)N2CC(F)(F)C2)c1 [Example 151, N-(6-Cyclopropyl-4-{2-[(3,3-difluoro-1-azetidinyl)carbonyl]-4-methoxyphenyl}-2-pyridyl)-1-cyclopropyl-5-[(isobutylamino)methyl]-2-oxo-1,2-dihydronicotinamide]
33 | < 100 | CC(C)Oc1cc(-c2ccc(OC(F)F)cc2C(=O)N2CC(F)(F)C2)cc(NC(=O)c2cc(CN[C@@H](C)C(C)C)cn(C3CC3)c2=O)n1 [Example 293]
34 | < 100 | N#Cc1ccc(-c2cc(NC(=O)c3cc(CNC[C@@H]4CCCO4)cn(CC(F)(F)F)c3=O)nc(C3CC3)c2)c(C(=O)N2CC(F)(F)C2)c1 [Example 179]
35 | < 100 | CC(C)Oc1cc(-c2ccc(C#N)cc2C(=O)N2CC(F)(F)C2)cc(NC(=O)c2cc(CN[C@@H](C)C(C)C)cn(C)c2=O)n1 [Example 214]

Source: patent US20260116868A1 (Arcus Biosciences, Inc., priority 2023, published 2026)
